In patent EP2027081B1, “THERAPEUTIC PROSTAGLANDIN COMPOUNDS FOR THE TREATMENT OF GLAUCOMA” (ALLERGAN, INC., priority 2006, dated 2007):
Like-named read-outs stand apart in the source and are kept apart here.

Tests used:
hEP2/Gqs5 = target: T1, hEP2/Gqs5 (Homo sapiens, UniProt P43116); experiment: FLIPR calcium signal study, HEK-293(EBNA) cells; assay type: cell-based
T1 construct: expressed in transfected cells; host or cells: HEK-293(EBNA)
Experimental: (§1) Cells were seeded at a density of 5x10^4 cells per well in Biocoat® Poly-D-lysine-coated black-wall, clear-bottom 96-well plates (Becton-Dickinson) and allowed to attach overnight in an incubator at 37 °C. Cells were then washed two times with HBSS-HEPES buffer (Hanks Balanced Salt Solution without bicarbonate and phenol red, 20 mM HEPES, pH 7.4) using a Denley Cellwash plate washer (Labsystems). After 45 minutes of dye-loading in the dark, using the calcium-sensitive dye Fluo-4 AM at a final concentration of 2 µM, plates were washed four times with HBSS-HEPES buffer to remove excess dye leaving 100 µl in each well. Plates were re-equilibrated to 37 °C for a few minutes.
Cells were excited with an Argon laser at 488 nm, and emission was measured through a 510-570 nm bandwidth emission filter (FLIPR™, Molecular Devices, Sunnyvale, CA). […] The peak increase in fluorescence intensity was recorded for each well. […] The peak fluorescence change in each drug-containing well was then expressed relative to the controls.
(§2) Compounds were tested in a high-throughput (HTS) or concentration-response (CoRe) format. In the HTS format, forty-four compounds per plate were examined in duplicates at a concentration of 10^-5 M. To generate concentration-response curves, four compounds per plate were tested in duplicates in a concentration range between 10^-5 and 10^-11 M. The duplicate values were averaged.

human EP2 receptors = target: T2, human EP2 receptors (Homo sapiens, UniProt P43116); experiment: Competition binding, [3H]PGE2, HEK 293 cells stably expressing human EP2 receptors
T2 construct: expressed in transfected cells; host or cells: HEK 293
Experimental: Competition binding experiments were performed in a medium containing Hank's balanced salt solution, Hepes 20 mM, pH 7.3, membranes (∼60 µg protein) or 2x10^5 cells from HEK 293 cells stably expressing human EP2 receptors, [^3H]PGE2 (10 nM) and various concentrations of test compounds in a total volume of 300 µl. Reaction mixtures were incubated at 23 °C for 60 min, and were filtered over Whatman GF/B filters under vacuum. Filters were washed three times with 5 ml ice-cold buffer containing 50 mM Tris/HCl (pH 7.3). Non-specific binding was estimated in the presence of excess unlabeled PGE2 (10 µM). Binding data fitted to the binding model for a single class of binding sites, using nonlinear regression analysis.
(§3) HEK-293 cells stably expressing the human or feline FP receptor, or EP1, EP2, or EP4 receptors were washed with TME buffer, scraped from the bottom of the flasks, and homogenized for 30 sec using a Brinkman PT 10/35 polytron. TME buffer was added to achieve a final 40 ml volume in the centrifuge tubes (the composition of TME is 100 mM TRIS base, 20 mM MgCl2, […]; 10N HCl is added to achieve a pH of 7.4).
(§4) The cell homogenate was centrifuged at 19000 r.p.m. for 20 min at 4° C using a Beckman Ti-60 rotor. The resultant pellet was resuspended in TME buffer to give a final 1 mg/ml protein concentration, as determined by Biorad assay. Radioligand binding competition assays vs. [^3H-]17 -phenyl PGF2α (5 nM) were performed in a 100µl volume for 60 min. Binding reactions were started by adding plasma membrane fraction. The reaction was terminated by the addition of 4 ml ice-cold TRIS-HCl buffer and rapid filtration through glass fiber GF/B filters using a Brandel cell harvester. The filters were washed 3 times with ice-cold buffer and oven dried for one hour.
(§5) [^3H-] PGE2 (specific activity 180 Ci mmol) was used as the radioligand for EP receptors. [^3H] 17-phenyl PGF2α was employed for FP receptor binding studies. Binding studies employing EP1, EP2, EP4 and FP receptors were performed in duplicate in at least three separate experiments. A 200µl assay volume was used. Incubations were for 60 min at 25°C and were terminated by the addition of 4 ml of ice-cold 50 mM TRIS-HCl, followed by rapid filtration through Whatman GF/B filters and three additional 4 ml washes in a cell harvester (Brandel). Competition studies were performed using a final concentration of 5 nM [^3H]-PGE2, or 5 nM [^3H] 17-phenyl PGF2α and non-specific binding determined with 10^-5M of unlabeled PGE2, or 17-phenyl PGF2α, according to receptor subtype studied.

EP4 receptors = target: T3, EP4 receptors (Homo sapiens, UniProt P35408); experiment: Radioligand binding, EP4 receptor; conditions: Table 3; read-out: BINDING (Ki, nM) HEP4
T3 construct: expressed in transfected cells; host or cells: HEK-293
Experimental: as §3, §4, §5

hEP3A/Gqi5 = target: T4, hEP3A/Gqi5 (Homo sapiens, UniProt P43115); experiment: FLIPR calcium signal study, HEK-293(EBNA) cells; assay type: cell-based
T4 construct: expressed in transfected cells; host or cells: HEK-293(EBNA)
T4 sequence (P43115 1-390): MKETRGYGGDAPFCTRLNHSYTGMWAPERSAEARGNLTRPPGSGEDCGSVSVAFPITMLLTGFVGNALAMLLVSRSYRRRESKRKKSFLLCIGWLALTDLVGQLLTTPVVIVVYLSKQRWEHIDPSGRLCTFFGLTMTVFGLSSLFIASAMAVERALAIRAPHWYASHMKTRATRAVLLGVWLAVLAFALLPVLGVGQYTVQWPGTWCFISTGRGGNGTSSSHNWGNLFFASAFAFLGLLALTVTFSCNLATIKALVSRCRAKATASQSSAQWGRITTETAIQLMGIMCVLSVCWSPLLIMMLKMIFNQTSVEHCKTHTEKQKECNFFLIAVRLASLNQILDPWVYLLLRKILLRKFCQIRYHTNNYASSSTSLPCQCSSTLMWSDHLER
Experimental: (§6) HEK-293(EBNA) cells, stably expressing one type or subtype of recombinant human prostaglandin receptors (prostaglandin receptors expressed: hDP/Gqs5; hEP1; hEP2/Gqs5; hEP3A/Gqi5; hEP4/Gqs5; hFP; hIP; hTP), were cultured in 100 mm culture dishes in high-glucose DMEM medium containing 10% fetal bovine serum, 2 mM I-glutamine, 250 µg/ml geneticin (G418) and 200 µg/ml hygromycin B as selection markers, and 100 units/ml penicillin G, 100 µg/ml streptomycin and 0.25 µg/ml amphotericin B.
as §1
(§7) Cells were excited with an Argon laser at 488 nm, and emission was measured through a 510-570 nm bandwidth emission filter (FLIPR™, Molecular Devices, Sunnyvale, CA). Drug solution was added in a 50 µl volume to each well to give the desired final concentration. The peak increase in fluorescence intensity was recorded for each well. On each plate, four wells each served as negative (HBSS-HEPES buffer) and positive controls (standard agonists: BW245C (hDP); PGE2 (hEP1; hEP2/Gqs5; hEP3A/Gqi5; hEP4/Gqs5); PGF2α (hFP); carbacyclin (hIP); U-46619 (hTP), depending on receptor). The peak fluorescence change in each drug-containing well was then expressed relative to the controls.
as §2, with “averaged. In either, HTS or CoRe format each compound was tested on at least 3 separate plates using cells from different passages to give an n ≥ 3.” for “averaged.”

HEP3 = target: T5, HEP3 (Homo sapiens, UniProt P43115); experiment: Radioligand binding, EP3 receptor; conditions: Table 3; NA means not active
T5 sequence (P43115 1-390): T4 sequence (P43115 1-390)

hEP4/Gqs5 = target: T6, hEP4/Gqs5 (Homo sapiens, UniProt P35408); experiment: FLIPR calcium signal study, HEK-293(EBNA) cells; assay type: cell-based; conditions: Table 1; NA means not active; read-out: FUNCTIONAL (Ca2+, EC50, nM) HEP 4
T6 construct: expressed in transfected cells; host or cells: HEK-293(EBNA)
Experimental: as §6, §1, §7
as §2, with “averaged. In either, HTS or CoRe format each compound was tested on at least 3 separate plates using cells from different passages to give an n ≥ 3.” for “averaged.”

HEP 2 = HEP 2 (Homo sapiens, UniProt P43116); experiment: cAMP mediated assay; assay type: cell-based; conditions: Table 1; value in brackets, footnote (a)
[1] = Table 2, unit inferred, read-out: BINDING HEP2
[2] = Table 3, read-out: FUNCTIONAL (Ca2+, EC50, nM) HEP3A
[3] = Table 1, Ca2+ signal, NA means not active, read-out: FUNCTIONAL (Ca2+, EC50, nM) HEP 2
[4] = Table 2, unit inferred, read-out: FUNCTIONAL HEP2

T2 sequence (P43116 whole entry): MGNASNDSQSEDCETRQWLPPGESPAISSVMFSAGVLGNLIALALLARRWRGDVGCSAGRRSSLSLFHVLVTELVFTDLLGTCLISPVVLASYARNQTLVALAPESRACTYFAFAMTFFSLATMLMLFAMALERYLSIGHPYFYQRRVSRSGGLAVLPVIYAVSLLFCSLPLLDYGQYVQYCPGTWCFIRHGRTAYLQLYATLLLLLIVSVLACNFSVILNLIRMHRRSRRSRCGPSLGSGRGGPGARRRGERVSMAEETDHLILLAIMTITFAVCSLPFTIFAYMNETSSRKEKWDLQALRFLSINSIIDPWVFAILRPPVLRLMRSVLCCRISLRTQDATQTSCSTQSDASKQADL
T1 sequence (P43116 whole entry): as above
T3 sequence (P35408 whole entry): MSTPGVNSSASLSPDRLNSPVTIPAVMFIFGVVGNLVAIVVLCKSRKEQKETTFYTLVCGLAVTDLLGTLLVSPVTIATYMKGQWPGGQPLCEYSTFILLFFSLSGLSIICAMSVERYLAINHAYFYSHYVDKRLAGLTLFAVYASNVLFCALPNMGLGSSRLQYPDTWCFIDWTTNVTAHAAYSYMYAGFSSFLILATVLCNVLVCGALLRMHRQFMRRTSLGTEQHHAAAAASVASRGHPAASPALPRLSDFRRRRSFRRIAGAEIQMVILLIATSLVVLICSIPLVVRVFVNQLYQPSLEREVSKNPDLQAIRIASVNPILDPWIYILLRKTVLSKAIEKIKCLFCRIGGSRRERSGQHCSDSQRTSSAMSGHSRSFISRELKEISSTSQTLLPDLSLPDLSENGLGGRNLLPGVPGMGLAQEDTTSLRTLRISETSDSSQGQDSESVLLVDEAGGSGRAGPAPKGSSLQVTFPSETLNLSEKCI
Chain of HEP 2 (P43116 whole entry): as the sequence (P43116 whole entry) above
T6 sequence (P35408 whole entry): as the sequence (P35408 whole entry) above

With `CCCCCC(O)c1ccc([C@H]2CCC(=O)[C@@H]2CCCCCCC(=O)O)s1` (stereo partly shown) the EC50 (hEP2/Gqs5) was 769 nM and the Ki (human EP2 receptors; [1]) was 600 nM.

For `CCCCCC(O)c1ccc([C@H]2CCC(=O)[C@@H]2CCCCCCC(=O)O)cc1` (stereo partly shown), the Ki (EP4 receptors) was 15000 nM, the EC50 (hEP2/Gqs5; Table 3, read-out: FUNCTIONAL (Ca2+, EC50, nM) HEP2) was 284 nM and the Ki (human EP2 receptors; Table 3, read-out: BINDING (Ki, nM) HEP2) was 871 nM. It also gave an EC50 (hEP3A/Gqi5; [2]) of 90 nM and a Ki (HEP3) of 5200 nM.

`O=C(O)CCCCCC[C@H]1C(=O)CC[C@@H]1c1ccc(C(O)C2CCCCC2)cc1` (stereo partly shown) [Entry 13] was tested, and the EC50 (hEP2/Gqs5; [3]) was 2050 nM.

In the case of `CCCCCC(O)c1ccc([C@H]2CCC(=O)[C@@H]2CCCCCCC(=O)OC)s1` (stereo partly shown), the EC50 (hEP2/Gqs5) is reported as 7100 nM and the Ki (human EP2 receptors; [1]) is reported as 7100 nM.

Molecule `CCCC1(C(O)c2ccc([C@H]3CCC(=O)[C@@H]3C/C=C\CCCC(=O)O)cc2)CCC1` (stereo partly shown) [Entry 9] has an EC50 (hEP2/Gqs5; [3]) greater than 10000 nM and an EC50 (hEP4/Gqs5) greater than 10000 nM.

`CCCCCC(O)c1ccc([C@H]2CCC(=O)[C@@H]2C/C=C\CCCC(=O)OC)cc1` (stereo partly shown) [drawing 115] was tested, and the Ki (EP4 receptors) was 15000 nM and the EC50 (hEP3A/Gqi5; [2]) was 15000 nM.

With `CCCCC(O)c1ccc([C@H]2CCC(=O)[C@@H]2CCCCCCC(=O)OC)cc1` (stereo partly shown) the EC50 (hEP2/Gqs5; [4]) was 15000 nM and the Ki (human EP2 receptors; [1]) was 15000 nM.

In the case of `CCCCCC(O)c1ccc([C@H]2CCC(=O)[C@@H]2C/C=C\CCCC(=O)O)cc1` (stereo partly shown) [drawing 116], the Ki (EP4 receptors) is reported as 15000 nM, the EC50 (hEP3A/Gqi5; [2]) is reported as 552 nM and the Ki (HEP3) is reported as 15000 nM.

With `CCCCC(O)c1ccc([C@H]2CCC(=O)[C@@H]2CCCCCCC(=O)O)cc1` (stereo partly shown) the EC50 (hEP2/Gqs5) was 1410 nM and the Ki (human EP2 receptors; [1]) was 1400 nM.

`CCCCCC(O)c1ccc([C@H]2CCC(=O)[C@@H]2C/C=C\CCCC(=O)OC)cc1` (stereo partly shown) [drawing 96] was tested, and the EC50 (hEP2/Gqs5; [4]) was 15000 nM and the Ki (human EP2 receptors; [1]) was 15000 nM.

With `CCCCCC(O)c1ccc([C@H]2CC[C@@H](F)[C@@H]2CCCCCCC(=O)O)cc1` (stereo partly shown) the EC50 (hEP2/Gqs5; [4]) was 15000 nM and the Ki (human EP2 receptors; [1]) was 600 nM.

In the case of `CCCCCC(O)c1ccc([C@H]2CCC(=O)[C@@H]2CCCc2ccc(C(=O)O)s2)cc1` (stereo partly shown) [Entry 23], the EC50 (hEP2/Gqs5; [3]) is reported as 2 nM, the Ki (human EP2 receptors; Table 1, read-out: BINDING (Ki, nM) HEP 2) is reported as 54 nM and the EC50 (HEP 2) is reported as 0.003 µM. It also gave an EC50 (hEP3A/Gqi5; Table 1, NA means not active, read-out: FUNCTIONAL (Ca2+, EC50, nM) HEP 3A) of 55 nM.

For `CCCCCC(O)c1ccc([C@H]2CC[C@@H](Cl)[C@@H]2CCCCCCC(=O)O)cc1` (stereo partly shown), the EC50 (hEP2/Gqs5; [4]) was 15000 nM and the Ki (human EP2 receptors; [1]) was 1900 nM.
